Reference: patent US10328022B2, “Formulations and methods for vaginal delivery of antiprogestins” (REPROS THERAPEUTICS INC., priority 2012, dated 2019)

Legend:
[1] = system: New Zealand White rabbits; test: Cumulative vaginal mucous membrane irritancy, 10 daily intravaginal doses; format: in vivo, rabbit
Protocol: Pullulan capsules (Capsugel NPcaps®, size 0) comprising CDB-4124 were administered once daily for 10 consecutive days intravaginally to 10 healthy virgin female New Zealand White rabbits in order to determine the cumulative vaginal mucous membrane irritancy potential and to obtain plasma samples for pharmacokinetic analysis. Five rabbits were assigned to each of two groups, the first dosed with vehicle control (pullulan capsules with 0.5 ml PEG 1000 fill) introduced into the upper vaginal vault of each rabbit using a syringe applicator (Group 1), the second with CDB-4124 (pullulan capsules with 12 mg CDB-4124 in 0.5 ml PEG 1000)(Group 2). The external vaginal mucosa of each animal was examined for erythema, edema and discharge prior to the initial dose, immediately prior to each treatment and prior to sacrifice. All animals were examined for gross pathology.

[2] = system: human females with uterine fibroids; test: Vaginal administration of pullulan capsules with 12 mg CDB-4124: menses and fibroid symptoms; format: in vivo
Protocol: (§1) Capsugel NPcaps® were filled with the excipient fill formulations described above with 12 mg CDB-4124 (telapristone acetate) and administered vaginally to human females with uterine fibroids once per day for a period of 2 weeks to determine the length of time required to reach steady state and overall systemic exposure of the parent compound (CDB-4124) and the primary metabolite (CDB-4453). The capsules were administered using a commercially available vaginal applicator modified by reversing the insert (see FIG. 5). The unmodified applicator comprises a barrel and plunger with the barrel having a relatively wide opening on one end and a relatively narrow opening on the other end. The applicator is designed such that the drug is placed in the end with the larger diameter opening (entrance end), the applicator is inserted into the vagina and the plunger is used to push the drug out the barrel and into the vagina. For insertion of the filled NPcaps, the shell end of the capsule (having a […] diameter) was placed into the narrow opening in the barrel, leaving the cap exposed. […] Pharmacokinetic data was then obtained from patients.
(§2) In a previous oral study, doses of 1, 3, 6, 9 and 12 mg of CDB-4124 were administered for a period of 10 weeks. […] Cessation of menses directly correlates to efficacy of an oral dose in both uterine fibroids and endometriosis. […] Given the overall low exposure of the 12 mg dose, in those women that continued to menstruate, further improvements in reduction of symptoms are expected with longer exposure to the drug. In efficacy studies in which CDB-4124 was administered orally, women experienced a nearly 50% reduction in mean fibroid size at a 25 mg dose. When those women were then escalated to a 50 mg oral dose for an additional four months, fibroid size was reduced to approximately 25% of the initial volume. Based on the assessment of fibroid symptoms as scored by UFSQOL, women on oral CDB-4124 were, in general, symptom free.

[3] = system: human females with uterine fibroids; test: Previous oral study of CDB-4124, 1, 3, 6, 9 and 12 mg for 10 weeks; format: in vivo
Protocol: as §2

uterine fibroids = test: Oral efficacy studies of CDB-4124, 25 mg then 50 mg; format: in vivo, human
Protocol: as §2

[4] = Pharmacokinetics of vaginal pullulan capsules with 12 mg CDB-4124 in women; format: in vivo, human
Protocol: as §1

[5] = 12 mg intravaginally once daily for 10 days
[6] = 12 mg vaginal, pair-wise comparison of 6 women

## COCC(=O)[C@@]1(OC(C)=O)CC[C@H]2[C@@H]3CCC4=CC(=O)CCC4=C3[C@@H](c3ccc(N(C)C)cc3)C[C@@]21C [CDB-4124, 21-methoxy-17α-acetoxy-11β-(4 N,N-dimethylaminophenyl)-19-norpregna-4,9-diene-3,20-dione]
[1]; 12 mg CDB-4124 in pullulan capsule intravaginally once daily for 10 days
  External vaginal mucosa: erythema, edema: ⅖ rabbits showed very slight erythema and/or edema on 4 occasions
[1]; [5]
  Gross findings in ovaries, uterus, three sections of the vagina: No gross findings
  Histopathological findings: nor were any histopathological findings observed
  Irritation index: none
[2]; 12 mg vaginal once per day, 6 women
  Cessation of menses, number of women: 3 women
[2]; 12 mg vaginal, after only 4 weeks of treatment
  Fibroid related condition: significant improvements
[2]; [6]
  Reduction in menstrual bleeding, Pictorial Blood Loss Assessment Chart (PBAC): Statistical significance (p<0.05)
  Reduction in overall uterine fibroid symptoms, Uterine Fibroid Symptom Quality of Life Survey (UFSQOL): Statistical significance (p<0.05)
[3]; oral 1 mg
  Efficacy of the 1 mg oral dose: ineffective
[3]; oral 1, 3, 6, 9 and 12 mg for 10 weeks
  Tolerability: all doses were well tolerated
[3]; oral, 10 weeks
  Lowest dose inducing reliable cessation of menses: 3 mg
Uterine fibroids; escalated to 50 mg oral dose for an additional four months
  Fibroid size as share of the initial volume: approximately 25%
Uterine fibroids; oral 25 mg dose
  Reduction in mean fibroid size: ~50%
Uterine fibroids; oral CDB-4124
  Fibroid symptoms as scored by UFSQOL: symptom free
[4]; 12 mg vaginal once per day, women
  Drug peak after steady state: no obvious drug peak
[4]; 12 mg vaginal versus 12 mg oral, women
  Systemic exposure relative to an equivalent oral dose, based on AUC: about ⅙
[4]; 12 mg vaginal versus 1, 3, 6, 9, 12 mg oral, women
  Cmax compared with oral doses: lower than any of the oral doses
[4]; 12 mg vaginal, steady state, 24 hour period, women
  Release profile from pullulan capsules: continuous release of active agents at a substantially constant rate
[4]; 12 mg vaginal, women
  Exposure compared with the 1 mg oral dose: only a fraction of the exposure of the ineffective 1 mg oral dose
  Maximum exposure relative to the 50 mg oral dose: 1/100
[4]; women with uterine fibroids, 12 mg vaginal pullulan capsule once per day
  Time to steady state concentration: one
